Test results from ChEMBL document CHEMBL1201861, “Genomics of Drug Sensitity in Cancer screening data, Wellcome Trust Sanger Institute”.

Columns and labels:
Test in all cases: cells
[1] = tested on: LK-2; assay type: functional, cell-based; settings: Homo sapiens;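 note: growth inhibition of LK-2 cells, read out with a viability assay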
Description: SANGER: Inhibition of human LK-2 cell growth in a cell viability assay.

[2] = tested on: SK-OV-3; assay type: functional, cell-based; settings: Homo sapiens;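 note: growth inhibition of SK-OV-3 human cells, read out with a cell viability assay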
Description: SANGER: Inhibition of human SK-OV-3 cell growth in a cell viability assay.

[3] = tested on: MC-IXC; assay type: functional, cell-based; settings: Homo sapiens;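 note: growth inhibition of MC-IXC cells, read out with a cell viability assay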
Description: SANGER: Inhibition of human MC-IXC cell growth in a cell viability assay.

[4] = tested on: EGI-1; assay type: functional, cell-based; settings: Homo sapiens;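 note: cell viability readout used to gauge growth inhibition of EGI-1 cells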
Description: SANGER: Inhibition of human EGI-1 cell growth in a cell viability assay.

[5] = tested on: DOK; assay type: functional, cell-based; settings: Homo sapiens;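 note: cell viability assay read-out, values reflect inhibition of cell growth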
Description: SANGER: Inhibition of human DOK cell growth in a cell viability assay.

[6] = tested on: HPAF-II; assay type: functional, cell-based; settings: Homo sapiens;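 note: growth inhibition of HPAF-II cells, read out with a cell viability assay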
Description: SANGER: Inhibition of human HPAF-II cell growth in a cell viability assay.

[7] = tested on: NCI-H441; assay type: functional, cell-based; settings: Homo sapiens;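 note: growth inhibition of NCI-H441 cells, read out with a cell viability assay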
Description: SANGER: Inhibition of human NCI-H441 cell growth in a cell viability assay.

[8] = tested on: M059J; assay type: functional, cell-based; settings: Homo sapiens;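 note: growth inhibition of M059J cells, read out with a cell viability assay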
Description: SANGER: Inhibition of human M059J cell growth in a cell viability assay.

[9] = tested on: NCI-H596; assay type: functional, cell-based; settings: Homo sapiens;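 note: growth inhibition of NCI-H596 cells, read out with a cell viability assay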
Description: SANGER: Inhibition of human NCI-H596 cell growth in a cell viability assay.

[10] = tested on: SCC-9; assay type: functional, cell-based; settings: Homo sapiens;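 note: Read-out is a cell viability assay, with values giving inhibition of cell growth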
Description: SANGER: Inhibition of human SCC-9 cell growth in a cell viability assay.

[11] = tested on: RERF-LC-MS; assay type: functional, cell-based; settings: Homo sapiens;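 note: growth inhibition of human RERF-LC-MS cells, read out by a cell viability assay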
Description: SANGER: Inhibition of human RERF-LC-MS cell growth in a cell viability assay.

[12] = tested on: IGR-1; assay type: functional, cell-based; settings: Homo sapiens;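 note: growth inhibition of human IGR-1 cells, read out with a cell viability assay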
Description: SANGER: Inhibition of human IGR-1 cell growth in a cell viability assay.

[13] = tested on: GP5d; assay type: functional, cell-based; settings: Homo sapiens;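 note: growth inhibition of human GP5d cells, read out with a cell viability assay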
Description: SANGER: Inhibition of human GP5d cell growth in a cell viability assay.

[14] = tested on: CAL-120; assay type: functional, cell-based; settings: Homo sapiens;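 note: cell growth inhibition, read out as cell viability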
Description: SANGER: Inhibition of human CAL-120 cell growth in a cell viability assay.

[15] = tested on: FaDu; assay type: functional, cell-based; settings: Homo sapiens;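 note: cell viability readout of growth inhibition in FaDu cells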
Description: SANGER: Inhibition of human FADU cell growth in a cell viability assay.

[16] = tested on: HT55; assay type: functional, cell-based; settings: Homo sapiens;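 note: cell viability readout measuring growth inhibition of human HT55 cells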
Description: SANGER: Inhibition of human HT55 cell growth in a cell viability assay.

[17] = tested on: G-401; assay type: functional, cell-based; settings: Homo sapiens
Description: SANGER: Inhibition of human G-401 cell growth in a cell viability assay.

[18] = tested on: MEL-HO; assay type: functional, cell-based; settings: Homo sapiens
Description: SANGER: Inhibition of human MEL-HO cell growth in a cell viability assay.

[19] = tested on: RPMI-2650; assay type: functional, cell-based; settings: Homo sapiens
Description: SANGER: Inhibition of human RPMI-2650 cell growth in a cell viability assay.

[20] = tested on: FTC-133; assay type: functional, cell-based; settings: Homo sapiens
[21] = tested on: MOLT-13; assay type: functional, cell-based; settings: Homo sapiens;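 note: IC50 for suppression of MOLT-13 cell growth, read out with a cell viability assay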
Description: SANGER: Inhibition of human MOLT-13 cell growth in a cell viability assay.

[22] = tested on: HO-1-N-1; assay type: functional, cell-based; settings: Homo sapiens;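 note: growth inhibition of human HO-1-N-1 cells, read out with a cell viability assay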
Description: SANGER: Inhibition of human HO-1-N-1 cell growth in a cell viability assay.

[23] = tested on: HCC70; assay type: functional, cell-based; settings: Homo sapiens;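 note: cell viability assay measuring how strongly the compound suppresses proliferation of HCC70 cells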
Description: SANGER: Inhibition of human HCC70 cell growth in a cell viability assay.

[24] = tested on: RCM-1; assay type: functional, cell-based; settings: Homo sapiens;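 note: growth inhibition of the RCM-1 line, determined with a cell viability readout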
Description: SANGER: Inhibition of human RCM-1 cell growth in a cell viability assay.

[25] = tested on: YKG-1; assay type: functional, cell-based; settings: Homo sapiens;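 note: cell growth inhibition, read out with a viability assay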
Description: SANGER: Inhibition of human YKG-1 cell growth in a cell viability assay.

[26] = tested on: KYSE-510; assay type: functional, cell-based; settings: Homo sapiens;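 note: cell viability readout used to measure how strongly growth of the cell line is suppressed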
Description: SANGER: Inhibition of human KYSE-510 cell growth in a cell viability assay.

[27] = tested on: Hs-578T; assay type: functional, cell-based; settings: Homo sapiens
Description: SANGER: Inhibition of human Hs-578-T cell growth in a cell viability assay.

[28] = tested on: NCI-H1437; assay type: functional, cell-based; settings: Homo sapiens;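 note: growth inhibition of human NCI-H1437 cells, read out by a cell viability assay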
Description: SANGER: Inhibition of human NCI-H1437 cell growth in a cell viability assay.

[29] = tested on: KYSE-150 cell line; assay type: functional, cell-based; settings: Homo sapiens;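 note: growth inhibition of human KYSE-150 cells, read out with a cell viability assay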
Description: SANGER: Inhibition of human KYSE-150 cell growth in a cell viability assay.

[30] = tested on: TYK-nu; assay type: functional, cell-based; settings: Homo sapiens;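 note: growth inhibition of human TYK-nu cells, read out by a cell viability assay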
Description: SANGER: Inhibition of human TYK-nu cell growth in a cell viability assay.

[31] = tested on: Ca-Ski; assay type: functional, cell-based; settings: Homo sapiens;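 note: cell viability assay measuring inhibition of Ca-Ski cell growth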
Description: SANGER: Inhibition of human Ca-Ski cell growth in a cell viability assay.

[32] = tested on: MG-63; assay type: functional, cell-based; settings: Homo sapiens;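 note: growth inhibition of human MG-63 cells, read out with a cell viability assay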
Description: SANGER: Inhibition of human MG-63 cell growth in a cell viability assay.

[33] = tested on: CAPAN-1; assay type: functional, cell-based; settings: Homo sapiens;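 note: growth suppression of CAPAN-1 cells, read out by a cell viability assay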
Description: SANGER: Inhibition of human CAPAN-1 cell growth in a cell viability assay.

[34] = tested on: MDA-MB-361; assay type: functional, cell-based; settings: Homo sapiens
[35] = tested on: NCI-H522; assay type: functional, cell-based; settings: Homo sapiens;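 note: cell viability assay measuring growth inhibition of human NCI-H522 cells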
Description: SANGER: Inhibition of human NCI-H522 cell growth in a cell viability assay.

[36] = tested on: HCC1395; assay type: functional, cell-based; settings: Homo sapiens;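 note: growth inhibition of HCC1395 cells, read out by a cell viability assay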
Description: SANGER: Inhibition of human HCC1395 cell growth in a cell viability assay.

[37] = tested on: MDA-MB-453; assay type: functional, cell-based; settings: Homo sapiens
Description: SANGER: Inhibition of human MDA-MB-453 cell growth in a cell viability assay.

[38] = tested on: P12-Ichikawa; assay type: functional, cell-based; settings: Homo sapiens
[39] = tested on: A2780; assay type: functional, cell-based; settings: Homo sapiens;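 note: growth inhibition of A2780 cells, read out with a cell viability assay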
Description: SANGER: Inhibition of human A2780 cell growth in a cell viability assay.

[40] = tested on: CAL-33; assay type: functional, cell-based; settings: Homo sapiens;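 note: growth inhibition of CAL-33 cells, read out with a cell viability assay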
Description: SANGER: Inhibition of human CAL-33 cell growth in a cell viability assay.

[41] = tested on: BXPC-3; assay type: functional, cell-based; settings: Homo sapiens;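 note: growth inhibition of human BxPC-3 cells, read out by a cell viability assay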
Description: SANGER: Inhibition of human BxPC-3 cell growth in a cell viability assay.

[42] = tested on: KYSE-140; assay type: functional, cell-based; settings: Homo sapiens;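 note: cell viability assay measuring growth inhibition in human KYSE-140 cells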
Description: SANGER: Inhibition of human KYSE-140 cell growth in a cell viability assay.

[43] = tested on: D-336MG; assay type: functional, cell-based, Homo sapiens; settings: Homo sapiens, D-336MG
Description: SANGER: Inhibition of human D-336MG cell growth in a cell viability assay.

[44] = tested on: J82; assay type: functional, cell-based; settings: Homo sapiens;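 note: growth inhibition of J82 cells, read out with a cell viability assay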
Description: SANGER: Inhibition of human J82 cell growth in a cell viability assay.

With CN(C)CCOc1ccc(-c2nc(-c3ccncc3)c(-c3ccc4c(c3)CC/C4=N\O)[nH]2)cc1 [SB590885] the IC50 [1] was over 5 µM, the IC50 [2] was over 5 µM and the IC50 [3] was over 5 µM. It also gave an IC50 [4] of over 5 µM, an IC50 [5] of over 5 µM and an IC50 [6] of over 5 µM. The IC50 [7] was over 5 µM, the IC50 [8] was over 5 µM and the IC50 [9] was over 5 µM. For the same molecule, the IC50 [10] was over 5 µM, the IC50 [11] was over 5 µM and the IC50 [12] was over 5 µM. For the same molecule, the IC50 [13] was over 5 µM, the IC50 [14] was over 5 µM and the IC50 [15] was over 5 µM. It also gave an IC50 [16] of over 5 µM, an IC50 [17] of over 5000 nM and an IC50 [18] of 69.3 nM. For the same molecule, the IC50 [19] was over 5 µM, the IC50 [20] was over 5 µM and the IC50 [21] was over 5 µM. For the same molecule, the IC50 [22] was over 5 µM, the IC50 [23] was over 5000 nM and the IC50 [24] was over 5 µM. The IC50 [25] was over 5 µM, the IC50 [26] was over 5 µM and the IC50 [27] was over 5000 nM. The IC50 [28] was over 5 µM, the IC50 [29] was over 5 µM and the IC50 [30] was 1800 nM. For the same molecule, the IC50 [31] was over 5 µM, the IC50 [32] was over 5 µM and the IC50 [33] was over 5 µM. It also gave an IC50 [34] of over 5000 nM, an IC50 [35] of over 5 µM and an IC50 [36] of over 5000 nM. It also gave an IC50 [37] of over 5 µM, an IC50 [38] of 3440 nM and an IC50 [39] of over 5 µM. For the same molecule, the IC50 [40] was over 5 µM, the IC50 [41] was over 5 µM and the IC50 [42] was over 5 µM.

With NC1(c2ccc(-c3nc4ccn5c(=O)[nH]nc5c4cc3-c3ccccc3)cc2)CCC1 [MK-2206] the IC50 [1] was over 4 µM, the IC50 [2] was over 4 µM and the IC50 [3] was over 4 µM. The IC50 [4] was over 4 µM, the IC50 [5] was 3.23 µM and the IC50 [6] was over 4 µM. For the same molecule, the IC50 [7] was over 4 µM, the IC50 [8] was over 4 µM and the IC50 [9] was over 4 µM. It also gave an IC50 [10] of over 4 µM, an IC50 [11] of over 4 µM and an IC50 [12] of over 4 µM. The IC50 [13] was over 4 µM, the IC50 [14] was over 4 µM and the IC50 [15] was over 4 µM. The IC50 [16] was over 4 µM, the IC50 [17] was 1300 nM and the IC50 [18] was over 4000 nM. The IC50 [19] was over 4 µM, the IC50 [20] was over 4 µM and the IC50 [21] was over 4 µM. For the same molecule, the IC50 [22] was over 4 µM, the IC50 [23] was 598 nM and the IC50 [24] was over 4 µM. The IC50 [25] was over 4 µM, the IC50 [26] was over 4 µM and the IC50 [27] was 2110 nM. For the same molecule, the IC50 [28] was over 4 µM, the IC50 [29] was over 4 µM and the IC50 [30] was over 4000 nM. It also gave an IC50 [31] of over 4 µM, an IC50 [32] of over 4 µM and an IC50 [33] of over 4 µM. It also gave an IC50 [34] of 578 nM, an IC50 [35] of over 4 µM and an IC50 [36] of 2750 nM. The IC50 [37] was over 4 µM, the IC50 [38] was 116 nM and the IC50 [39] was over 4 µM. The IC50 [40] was over 4 µM, the IC50 [41] was over 4 µM and the IC50 [42] was over 4 µM.

For CC1(C)CCC(c2ccc(Cl)cc2)=C(CN2CCN(c3ccc(C(=O)NS(=O)(=O)c4ccc(N[C@H](CCN5CCOCC5)CSc5ccccc5)c(S(=O)(=O)C(F)(F)F)c4)cc3)CC2)C1 [NAVITOCLAX], the IC50 [1] was over 2 µM, the IC50 [2] was over 2 µM and the IC50 [3] was over 2 µM. It also gave an IC50 [4] of over 2 µM, an IC50 [5] of over 2 µM and an IC50 [6] of 0.926 µM. It also gave an IC50 [7] of over 2 µM, an IC50 [8] of over 2 µM and an IC50 [9] of over 2 µM. For the same molecule, the IC50 [10] was over 2 µM, the IC50 [11] was over 2 µM and the IC50 [12] was over 2 µM. The IC50 [13] was over 2 µM, the IC50 [14] was 1.16 µM and the IC50 [15] was over 2 µM. The IC50 [16] was over 2 µM, the IC50 [17] was over 2000 nM and the IC50 [18] was over 2000 nM. It also gave an IC50 [19] of over 2 µM, an IC50 [20] of over 2 µM and an IC50 [21] of 0.466 µM. For the same molecule, the IC50 [22] was over 2 µM, the IC50 [23] was over 2000 nM and the IC50 [24] was over 2 µM. It also gave an IC50 [25] of over 2 µM, an IC50 [26] of over 2 µM and an IC50 [27] of over 2000 nM. The IC50 [28] was over 2 µM, the IC50 [29] was over 2 µM and the IC50 [30] was over 2000 nM. It also gave an IC50 [31] of over 2 µM, an IC50 [32] of over 2 µM and an IC50 [43] of over 2 µM. The IC50 [33] was over 2 µM, the IC50 [34] was over 2000 nM and the IC50 [35] was over 2 µM. For the same molecule, the IC50 [36] was over 2000 nM, the IC50 [37] was over 2 µM and the IC50 [38] was 77.8 nM. The IC50 [39] was over 2 µM, the IC50 [40] was over 2 µM and the IC50 [41] was over 2 µM. It also gave an IC50 [42] of over 2 µM and an IC50 [44] of over 2 µM.

For Cc1ccc(-n2nc(C(C)(C)C)cc2NC(=O)Nc2ccc(OCCN3CCOCC3)c3ccccc23)cc1 [DORAMAPIMOD], the IC50 [1] was over 10 µM, the IC50 [2] was over 10 µM and the IC50 [3] was over 10 µM. For the same molecule, the IC50 [4] was over 10 µM, the IC50 [5] was over 10 µM and the IC50 [6] was over 10 µM. The IC50 [7] was over 10 µM, the IC50 [8] was over 10 µM and the IC50 [9] was over 10 µM. The IC50 [10] was over 10 µM, the IC50 [11] was over 10 µM and the IC50 [12] was over 10 µM. For the same molecule, the IC50 [13] was over 10 µM, the IC50 [14] was over 10 µM and the IC50 [15] was over 10 µM. For the same molecule, the IC50 [16] was over 10 µM, the IC50 [17] was over 10000 nM and the IC50 [18] was over 10000 nM. It also gave an IC50 [19] of over 10 µM, an IC50 [20] of over 10 µM and an IC50 [21] of over 10 µM. For the same molecule, the IC50 [22] was over 10 µM, the IC50 [23] was over 10000 nM and the IC50 [24] was over 10 µM. It also gave an IC50 [25] of over 10 µM, an IC50 [26] of over 10 µM and an IC50 [27] of over 10000 nM. For the same molecule, the IC50 [28] was over 10 µM, the IC50 [29] was over 10 µM and the IC50 [30] was over 10000 nM. For the same molecule, the IC50 [31] was over 10 µM, the IC50 [32] was over 10 µM and the IC50 [43] was over 10 µM. It also gave an IC50 [33] of over 10 µM, an IC50 [34] of over 10000 nM and an IC50 [35] of over 10 µM. It also gave an IC50 [36] of over 10000 nM, an IC50 [37] of over 10 µM and an IC50 [38] of over 10000 nM. For the same molecule, the IC50 [39] was over 10 µM, the IC50 [40] was over 10 µM and the IC50 [41] was over 10 µM. The IC50 [42] was over 10 µM and the IC50 [44] was over 10 µM.
